# Patent US20260184710A1, “CASITAS B-LINEAGE LYMPHOMA PROTOONCOGENE B (CBL-B) DEGRADING COMPOUNDS AND ASSOCIATED METHODS OF USE” (Arvinas Operations, Inc., priority 2022, published 2026)
# Target: T1, Cbl-b (Homo sapiens, UniProt Q13191)
# T1 construct: Cbl-b-HiBit KI Jurkat Cells were purchased from Promega; host or cells: Cbl-b-HiBiT knock-in Jurkat cells
# Assay: Cbl-b Degradation Method B (Nano-Glo HiBiT lytic detection)
# Format: cell-based
# Settings: Cbl-b-HiBit KI Jurkat Cells, incubated at least 6-24 hours; for DC50: half maximal degradation, read-out: Cbl-b Degredation Method B IC50; for Dmax: maximum degradation observed, read-out: Cbl-b Degredation Method B Dmax (%)
# In short: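 An 11-point, 3-fold compound dilution was applied for 6-24 hours to Jurkat cells carrying HiBiT-tagged endogenous Cbl-b. Lytic HiBiT luminescence quantified residual protein. Outputs are DC50 and Dmax relative to DMSO control.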
# T1 sequence (Q13191 whole entry): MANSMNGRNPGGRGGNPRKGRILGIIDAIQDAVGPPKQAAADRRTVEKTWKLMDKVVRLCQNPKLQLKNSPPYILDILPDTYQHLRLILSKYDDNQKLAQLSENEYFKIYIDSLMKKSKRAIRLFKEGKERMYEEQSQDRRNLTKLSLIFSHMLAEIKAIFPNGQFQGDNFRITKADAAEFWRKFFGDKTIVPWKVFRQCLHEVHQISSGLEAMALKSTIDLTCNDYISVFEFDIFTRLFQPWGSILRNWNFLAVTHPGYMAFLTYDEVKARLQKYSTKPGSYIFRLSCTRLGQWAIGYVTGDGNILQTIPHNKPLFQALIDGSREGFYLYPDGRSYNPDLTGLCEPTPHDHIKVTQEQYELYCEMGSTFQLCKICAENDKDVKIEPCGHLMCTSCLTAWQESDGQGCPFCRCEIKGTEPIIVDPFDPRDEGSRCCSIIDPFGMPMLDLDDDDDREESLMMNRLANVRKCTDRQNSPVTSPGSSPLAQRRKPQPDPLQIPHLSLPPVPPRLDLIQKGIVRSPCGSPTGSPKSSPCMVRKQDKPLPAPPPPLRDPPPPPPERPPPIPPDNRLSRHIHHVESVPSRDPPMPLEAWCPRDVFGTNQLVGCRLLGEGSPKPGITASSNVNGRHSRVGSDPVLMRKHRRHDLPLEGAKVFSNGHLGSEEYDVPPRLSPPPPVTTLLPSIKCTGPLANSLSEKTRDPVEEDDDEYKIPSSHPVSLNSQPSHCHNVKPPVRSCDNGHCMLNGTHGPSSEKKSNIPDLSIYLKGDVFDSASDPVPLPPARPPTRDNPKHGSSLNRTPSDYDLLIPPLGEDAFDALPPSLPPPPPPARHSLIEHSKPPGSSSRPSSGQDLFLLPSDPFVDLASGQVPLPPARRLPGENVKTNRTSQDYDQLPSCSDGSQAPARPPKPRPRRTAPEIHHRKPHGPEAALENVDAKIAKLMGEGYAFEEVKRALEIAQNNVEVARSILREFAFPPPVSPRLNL
SMILES,DC50 [nM],Dmax [%]
"C[C@H]1CN(CC2CCC(OC3CCN(c4ccc5c(c4F)CN(C4CCC(=O)NC4=O)C5=O)CC3)CC2)[C@@H](C)CN1Cc1cc2c(c(C(F)(F)F)c1)CN(c1cccc(C3(Cc4nncn4C)COC3)c1)C2=O (stereo partly drawn) [Example 242, 3-[4-fluoro-1-oxo-5-(4-{[(1rs,4rs)-4-{[(2S,5S)-2,5-dimethyl-4-{[2-(3-{3-[(4-methyl-4H-1,2,4-triazol-3-yl)methyl]oxetan-3-yl}phenyl)-3-oxo-7-(trifluoromethyl)-2,3-dihydro-1H-isoindol-5-yl]methyl}piperazin-1-yl]methyl}cyclohexyl]oxy}piperidin-1-yl)-2,3-dihydro-1H-isoindol-2-yl]piperidine-2,6-dione]",< 5,> 70
"CC1c2nc(N3CCC(OC4CCC(CN5[C@H](C)CN(Cc6cc7c(c(C(F)(F)F)c6)CN(c6cccc(C8(Cc9nncn9C)COC8)c6)C7=O)C[C@@H]5C)CC4)CC3)ccc2C(=O)N1C1CCC(=O)NC1=O (stereo partly drawn) [Example 243, 3-[7-methyl-5-oxo-2-(4-{[(1rs,4rs)-4-{[(2R,6S)-2,6-dimethyl-4-{[2-(3-{3-[(4-methyl-4H-1,2,4-triazol-3-yl)methyl]oxetan-3-yl}phenyl)-3-oxo-7-(trifluoromethyl)-2,3-dihydro-1H-isoindol-5-yl]methyl}piperazin-1-yl]methyl}cyclohexyl]oxy}piperidin-1-yl)-5H,6H,7H-pyrrolo[3,4-b]pyridin-6-yl]piperidine-2,6-dione]",< 5,> 70
"C[C@@H]1CN(Cc2cc3c(c(C(F)(F)F)c2)CN(c2cccc(C4(Cc5nncn5C)COC4)c2)C3=O)CCN1C[C@H]1CC[C@H](OC2CCN(c3ccc4c(c3F)CN(C3CCC(=O)NC3=O)C4=O)CC2)CC1 (stereo partly drawn) [Example 244, 3-[4-fluoro-1-oxo-5-(4-{[(1r*,4r*)-4-{[(2R)-2-methyl-4-{[2-(3-{3-[(4-methyl-4H-1,2,4-triazol-3-yl)methyl]oxetan-3-yl}phenyl)-3-oxo-7-(trifluoromethyl)-2,3-dihydro-1H-isoindol-5-yl]methyl}piperazin-1-yl]methyl}cyclohexyl]oxy}piperidin-1-yl)-2,3-dihydro-1H-isoindol-2-yl]piperidine-2,6-dione]",< 5,> 70
"CC1CN(C[C@H]2CC[C@H](OC3CCN(c4ccc5c(c4)n(C(C)C)c(=O)n5C4CCC(=O)NC4=O)CC3)CC2)CCN1Cc1cc2c(c(C(F)(F)F)c1)CN(c1cccc(C3(Cc4nncn4C)CC(C#N)C3)c1)C2=O (some centres unmarked) [Example 245, (1r**,3r**)-3-(3-{6-[(2-methyl-4-{[(1r*,4r*)-4-({1-[1-(2,6-dioxopiperidin-3-yl)-2-oxo-3-(propan-2-yl)-2,3-dihydro-1H-1,3-benzodiazol-5-yl]piperidin-4-yl}oxy)cyclohexyl]methyl}piperazin-1-yl)methyl]-1-oxo-4-(trifluoromethyl)-2,3-dihydro-1H-isoindol-2-yl}phenyl)-3-[(4-methyl-4H-1,2,4-triazol-3-yl)methyl]cyclobutane-1-carbonitrile]",< 5,> 70
"CC1c2nc(N3CCC(O[C@H]4CC[C@@H](CN5[C@@H](C)CN(Cc6cc7c(c(C(F)(F)F)c6)CN(c6cccc(C8(Cc9nncn9C)COC8)c6)C7=O)C[C@@H]5C)CC4)CC3)ccc2C(=O)N1C1CCC(=O)NC1=O (stereo partly drawn) [Example 249, 3-[7-methyl-5-oxo-2-(4-{[(1r*,4r*)-4-{[(2S,6S)-2,6-dimethyl-4-{[2-(3-{3-[(4-methyl-4H-1,2,4-triazol-3-yl)methyl]oxetan-3-yl}phenyl)-3-oxo-7-(trifluoromethyl)-2,3-dihydro-1H-isoindol-5-yl]methyl}piperazin-1-yl]methyl}cyclohexyl]oxy}piperidin-1-yl)-5H,6H,7H-pyrrolo[3,4-b]pyridin-6-yl]piperidine-2,6-dione]",< 5,> 70
"CC1c2nc(N3CCC(O[C@H]4CC[C@H](CN5[C@H](C)CN(Cc6cc7c(c(C(F)(F)F)c6)CN(c6cccc(C8(Cc9nncn9C)COC8)c6)C7=O)C[C@H]5C)CC4)CC3)ccc2C(=O)N1C1CCC(=O)NC1=O (stereo partly drawn) [Example 250, 3-[7-methyl-5-oxo-2-(4-{[(1r*,4r*)-4-{[(2R,6R)-2,6-dimethyl-4-{[2-(3-{3-[(4-methyl-4H-1,2,4-triazol-3-yl)methyl]oxetan-3-yl}phenyl)-3-oxo-7-(trifluoromethyl)-2,3-dihydro-1H-isoindol-5-yl]methyl}piperazin-1-yl]methyl}cyclohexyl]oxy}piperidin-1-yl)-5H,6H,7H-pyrrolo[3,4-b]pyridin-6-yl]piperidine-2,6-dione]",< 5,35 to 70
"Cc1cc(N2CCC(O[C@H]3CC[C@H](CN4CCN(Cc5cc6c(c(C(F)(F)F)c5)CN(c5cccc(C7(Cc8nncn8C)CC(C#N)C7)c5)C6=O)C(C)(C)C4)CC3)CC2)c(F)c2c1C(=O)N(C1CCC(=O)NC1=O)C2 (some centres unmarked) [Example 251, (1r**,3r**)-3-(3-{6-[(2,2-dimethyl-4-{[(1r*,4r*)-4-({1-[2-(2,6-dioxopiperidin-3-yl)-4-fluoro-7-methyl-1-oxo-2,3-dihydro-1H-isoindol-5-yl]piperidin-4-yl}oxy)cyclohexyl]methyl}piperazin-1-yl)methyl]-1-oxo-4-(trifluoromethyl)-2,3-dihydro-1H-isoindol-2-yl}phenyl)-3-[(4-methyl-4H-1,2,4-triazol-3-yl)methyl]cyclobutane-1-carbonitrile]",5 to 50,> 70
"CC1c2nc(N3CCC(O[C@H]4CC[C@H](CN5CCN(Cc6cc(C(F)(F)F)c7cn(-c8cccc(C9(Cc%10nncn%10C)CC(C#N)C9)c8)nc7c6)C(C)(C)C5)CC4)CC3)ccc2C(=O)N1C1CCC(=O)NC1=O (some centres unmarked) [Example 252, (1r**,3r**)-3-(3-{6-[(2,2-dimethyl-4-{[(1r*,4r*)-4-({1-[6-(2,6-dioxopiperidin-3-yl)-7-methyl-5-oxo-5H,6H,7H-pyrrolo[3,4-b]pyridin-2-yl]piperidin-4-yl}oxy)cyclohexyl]methyl}piperazin-1-yl)methyl]-4-(trifluoromethyl)-2H-indazol-2-yl}phenyl)-3-[(4-methyl-4H-1,2,4-triazol-3-yl)methyl]cyclobutane-1-carbonitrile]",5 to 50,35 to 70
"Cn1cnnc1CC1(c2cccc(N3Cc4c(cc(CN5CCN(C[C@H]6CC[C@H](OC7CCN(c8ccc9c(c8F)CN(C8CCC(=O)NC8=O)C9=O)CC7)CC6)CC5(C)C)cc4C(F)(F)F)C3=O)c2)CC(C#N)C1 (some centres unmarked) [Example 254, (1r**,3r**)-3-(3-{6-[(2,2-dimethyl-4-{[(1r*,4r*)-4-({1-[2-(2,6-dioxopiperidin-3-yl)-4-fluoro-1-oxo-2,3-dihydro-1H-isoindol-5-yl]piperidin-4-yl}oxy)cyclohexyl]methyl}piperazin-1-yl)methyl]-1-oxo-4-(trifluoromethyl)-2,3-dihydro-1H-isoindol-2-yl}phenyl)-3-[(4-methyl-4H-1,2,4-triazol-3-yl)methyl]cyclobutane-1-carbonitrile]",5 to 50,> 70
"Cn1cnnc1CC1(c2cccc(-n3cc4c(C(F)(F)F)cc(CN5CCC[C@H](CN6CCC(CN7CCN(c8ccc9c(c8F)CN(C8CCC(=O)NC8=O)C9=O)CC7)CC6)C5)cc4n3)c2)COC1 (stereo partly drawn) [Example 256, 3-(4-fluoro-5-{4-[(1-{[(3R)-1-{[2-(3-{3-[(4-methyl-4H-1,2,4-triazol-3-yl)methyl]oxetan-3-yl}phenyl)-4-(trifluoromethyl)-2H-indazol-6-yl]methyl}piperidin-3-yl]methyl}piperidin-4-yl)methyl]piperazin-1-yl}-1-oxo-2,3-dihydro-1H-isoindol-2-yl)piperidine-2,6-dione]",> 500,–
"Cn1cnnc1CC1(c2cccc(-n3cc4c(C(F)(F)F)cc(CN5CCC[C@H](CN6CCC[C@@H](CN7CCN(c8ccc9c(c8F)CN(C8CCC(=O)NC8=O)C9=O)CC7)C6)C5)cc4n3)c2)COC1 (stereo partly drawn) [Example 257, 3-[4-fluoro-5-(4-{[(3R)-1-{[(3R)-1-{[2-(3-{3-[(4-methyl-4H-1,2,4-triazol-3-yl)methyl]oxetan-3-yl}phenyl)-4-(trifluoromethyl)-2H-indazol-6-yl]methyl}piperidin-3-yl]methyl}piperidin-3-yl]methyl}piperazin-1-yl)-1-oxo-2,3-dihydro-1H-isoindol-2-yl]piperidine-2,6-dione]",> 500,–
"Cn1cnnc1CC1(c2cccc(-n3cc4c(C(F)(F)F)cc(CN5CCC[C@H](CN6CCC[C@H](OC7CCN(c8ccc9c(c8F)CN(C8CCC(=O)NC8=O)C9=O)CC7)C6)C5)cc4n3)c2)COC1 (stereo partly drawn) [Example 258, 3-[4-fluoro-5-(4-{[(3S)-1-{[(3S)-1-{[2-(3-{3-[(4-methyl-4H-1,2,4-triazol-3-yl)methyl]oxetan-3-yl}phenyl)-4-(trifluoromethyl)-2H-indazol-6-yl]methyl}piperidin-3-yl]methyl}piperidin-3-yl]oxy}piperidin-1-yl)-1-oxo-2,3-dihydro-1H-isoindol-2-yl]piperidine-2,6-dione]",> 500,–
"Cn1cnnc1CC1(c2cccc(-n3cc4c(C(F)(F)F)cc(CN5CCC[C@H](CN6CCC(OC7CCN(c8ccc9c(c8F)CN(C8CCC(=O)NC8=O)C9=O)CC7)CC6)C5)cc4n3)c2)COC1 (stereo partly drawn) [Example 259, 3-(4-fluoro-5-{4-[(1-{[(3R)-1-{[2-(3-{3-[(4-methyl-4H-1,2,4-triazol-3-yl)methyl]oxetan-3-yl}phenyl)-4-(trifluoromethyl)-2H-indazol-6-yl]methyl}piperidin-3-yl]methyl}piperidin-4-yl)oxy]piperidin-1-yl}-1-oxo-2,3-dihydro-1H-isoindol-2-yl)piperidine-2,6-dione]",> 500,–
"Cn1cnnc1CC1(c2cccc(-n3cc4ccc(N5CC6(CCN(CC7CCN(c8ccc9c(c8Cl)CN(C8CCC(=O)NC8=O)C9=O)CC7)CC6)C5)cc4n3)c2)COC1 (centres unmarked) [Example 260, 3-{4-chloro-5-[4-({2-[2-(3-{3-[(4-methyl-4H-1,2,4-triazol-3-yl)methyl]oxetan-3-yl}phenyl)-2H-indazol-6-yl]-2,7-diazaspiro[3.5]nonan-7-yl}methyl)piperidin-1-yl]-1-oxo-2,3-dihydro-1H-isoindol-2-yl}piperidine-2,6-dione]",> 500,–
